Columns and labels:
Format in all cases: in vivo
[1] = system: Housefly [Musca domestica]; experiment: Housefly contact mortality in dishes (HF), 48 hours; conditions: μg of test compound per 25 female flies
Procedure, shortened: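 LC50, as μg compound per 25 female flies, comes from dosage-mortality curves with doses from 100 μg downward. Residues were made by evaporating acetone plus 0.01% peanut oil in dishes, onto which 1-2-day-old females were caged; deaths were counted after 48 hours.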

[2] = system: Black Bean Aphid [Aphis fabae (Scop.)]; experiment: Black bean aphid spray test on nasturtium (BBA), 48 hours; conditions: percent of test compound in sprayed solution
Procedure, shortened: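 LC50, given as percent test compound in the sprayed liquid, was calculated from dosage-mortality curves using concentrations from 0.05% downward. Sprays in 50:50 acetone-water went to runoff on ~5 cm nasturtiums carrying 25-50 aphids of mixed ages, one day after infestation. Deaths were counted 48 h later under greenhouse conditions.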

[3] = system: Tobacco Budworm [Heliothis virescens (Fabricius)] larvae; experiment: Tobacco budworm larvae, contact (TBW-C), 5 days; conditions: percent in solution, second-instar larvae
Procedure, shortened: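 Cotton cotyledons dipped 2–3 s in compound in 50-50 acetone-water, dried, then infested with 5 second-instar larvae and held 5 days at high humidity. Mortality scored; LC50 from dosage-mortality curves, expressed as percent compound in solution, concentrations from 0.1% downward.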

[4] = system: Tobacco Budworm [Heliothis virescens (Fabricius)] eggs; experiment: Tobacco budworm eggs (TBW-E); conditions: percent in solution; 2-day old eggs
Procedure, shortened: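 Step 1: dip 2-day old egg patches in acetone test solutions (top concentration 0.1%). Step 2: hold in dishes with rearing medium at 78° F. Step 3: record mortality after control hatch and feeding.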

[5] = system: Beet Armyworm (Spodoptera exigua); experiment: Beet armyworm leaf dip (BAW), 5 days; conditions: percent in solution; second-instar larvae; five days
Procedure, shortened: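 Five second-instar larvae per dish fed on dried sugar beet leaves previously dipped 2–3 s in acetone-water (1:1) test solutions up to 0.1%. Kept at high humidity, with deaths counted after five days; LC50 as % in solution via dosage-mortality curves.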

[6] = system: Cabbage Looper [Trichoplusia ni (Hubner)]; experiment: Cabbage looper leaf dip (CL), 3-5 days; conditions: percent in solution, second-instar larvae
Procedure, shortened: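 Squash cotyledons dipped in test solution (acetone-water 50-50, ≤0.1%), dried, offered to 5 second-instar larvae; mortality after 3-5 days gives LC50.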

[7] = system: Aster Leafhopper [Macrosteles fascifrens (Stal)]; experiment: Aster leafhopper on dipped oat seedlings (LH), 48 hours; conditions: percent in solution, adults/nymphs
Procedure, shortened: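 LC50 values, given as percent of test compound in the dip solution, were derived from dosage-mortality curves over concentrations from 0.05% downward. Mortality was counted 48 hours after ten leafhopper adults/nymphs were enclosed on treated seedlings. The seedlings were oats, about 10 cm tall, briefly dipped in 50-50 acetone-water.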

[8] = system: Maize weevil [Sitophilus zeamais (Motschulsky)]; experiment: Maize weevil on dipped corn seeds (MW), 48 hours; conditions: percent in solution, adult weevils
Procedure, shortened: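 LC50, given as percent of compound in dipping solution, comes from dosage-mortality curves over concentrations descending from 0.01%. Four corn seeds soaked 2-3 s in 50:50 acetone:water solution were dried and held with 10 adult weevils, about 25° C, mortality read after 48 h.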

[9] = system: Rice water weevil [Lissorhoptrus oryzophilus (Kuschel)]; experiment: Rice water weevil topical (RWW), 48 hours; conditions: μg of test compound per weevil, female adults
Procedure, shortened: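 Female adult weevils (ten per dose) received 1 µl acetone droplets on the ventral abdomen and were held at about 25 °C with wet cotton and rice foliage. Mortality read at 48 h; LC50 from dose-mortality curves, given as µg compound per weevil, top dose 2.5 µg per weevil.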

Compound	LC50 HF [1] [µg]	LC50 BBA [2] [%]	LC50 TBW C (contact) [3] [%]	LC50 TBW E (eggs) [4] [%]	LC50 BAW [5] [%]	LC50 CL [6] [%]	LC50 LH [7] [%]	LC50 MW [8] [%]	LC50 RWW [9] [µg]
CC(C)C(=Nc1ccc(F)c(Cl)c1)OCc1cccc(Oc2ccc(Cl)cc2)c1 [Compound 239]	14	0.001	0.0005	0.025	0.005	0.00015	0.002	0.006	> 2.5
CC(C)C(=Nc1ccc(F)c(Cl)c1)OCc1ccc(F)c(Oc2ccc(Cl)cc2)c1 [Compound 267]	8.4	0.0003	0.0003	0.015	0.0012	0.00008	0.002	0.0027	0.11
CC(C)C(=Nc1ccc2c(c1)OCO2)OCc1cccc(Oc2ccccc2)c1 [Compound 180]	2	0.0003	0.003	0.03	0.005	0.0004	0.0015	0.008	> 2.5
CC(C)C(=Nc1ccc(F)c(F)c1)OCc1ccc(F)c(Oc2ccc(F)cc2)c1 [Compound 278]	3	0.0005	0.00026	0.008	0.0012	0.00002	0.0003	0.0063	0.085
CC(C)C(=Nc1ccc(F)c(Cl)c1)OCc1cccc(Oc2ccccc2)c1 [Compound 81, N-(3-Chloro-4-fluorophenyl)-O-(3-phenoxybenzyl)isobutyrylimidate]	4	0.001	0.0009	0.007	0.003	0.0006	0.0003	0.005	> 0.5
CC(C)C(=Nc1ccc(F)c(Cl)c1)OCc1ccc(F)c(Oc2ccccc2)c1 [Compound 82]	2.5	0.00021	0.0008	0.006	0.0025	0.00018	0.0001		0.086
CC(C)C(=Nc1ccc(F)c(F)c1)OCc1ccc(F)c(Oc2ccccc2)c1 [Compound 336]	3.6	0.0003	0.0005	0.02	0.001	0.00017		0.0091	> 2.5
CC(C)C(=Nc1ccc(F)c(Cl)c1F)OCc1cccc(Oc2ccc(F)cc2)c1 [Compound 352]	4.6	0.0003	0.0004	> 0.1	> 0.1	0.000065	0.0004	0.0075	> 2.5
CC(C)C(=Nc1ccc(F)c(F)c1F)OCc1ccc(F)c(Oc2ccc(F)cc2)c1 [Compound 349]	4.9	> 0.05	0.0004	> 0.1	> 0.1	0.00007		> 0.01	> 2.5
CC(C)C(=Nc1ccc(F)c(Cl)c1)OCc1cccc(Oc2ccc(F)cc2)c1 [Compound 89]	5	0.003	0.0005	0.04	0.009	0.00003	0.001	0.005	> 2.5
CC(C)C(=Nc1ccc(OC(F)(F)F)cc1)OCc1ccc(F)c(Oc2ccc(F)cc2)c1 [Compound 286]	34	0.0003	0.00017	0.005	0.0004	0.000024	0.0006	0.0039	0.09
CC(C)C(=Nc1ccc2c(c1)OC(F)(F)O2)OCc1cccc(Oc2ccc(F)cc2)c1 [Compound 244]	14	0.0006	0.00025	> 0.1	0.002	0.00004		0.0025	0.09
CC(C)C(=Nc1ccc2c(c1)OC(F)(F)O2)OCc1cccc(Oc2ccccc2)c1 [Compound 245]	20	0.0003	0.0015	0.016	0.001	0.0035		0.006	> 2.5
CC(C)C(=Nc1cc(F)cc(F)c1)OCc1cccc(Oc2ccccc2)c1 [Compound 55]	> 100	0.003	0.004	0.06	0.006	0.0017	0.0005		> 2.5

From US5045566A, “Novel imidate insecticides” (ICI Americas Inc., priority 1989, dated 1991)
